Test results as given in US20100184704A1, “USE OF THE PEPTIDE GLY-ARG-GLY-ASP-ASN-PRO AS A THERAPEUTIC AGENT” (priority 2007, published 2010).
Where a SMILES comes first, the peptide text is derived from it.

What was measured:
HepG2-2.2.15 cells = experiment: Cytotoxicity in the HBV assay (dye uptake cell viability); format: cell-based; conditions: peptide 10 micrograms per ml
HIV-1 = HIV-1 antiviral assay (CPE reduction, MTS readout) in CEM-SS cells; format: cell-based; conditions: peptide 10 micrograms per ml, strain HIV-1111B, 6 days post-infection
CEM-SS cells = experiment: Cytotoxicity in the HIV-1 assay (MTS cell viability); conditions: CEM-SS cells, HIV-1 assay; peptide 10 micrograms per ml; MTS
HCMV strain AD169 = experiment: HCMV plaque reduction assay in MRC-5 cells; conditions: HCMV AD169 in MRC-5 cells; peptide 10 micrograms per ml; 7-10 days
[1] = tested on: MRC-5 cells (human embryonal lung fibroblasts); conditions: 6 days
[2] = Cytotoxicity in the HBV assay (dye uptake cell viability); format: cell-based; conditions: human, HepG2-2.2.15 cells (stable line containing HBV ayw genome), peptide 10 micrograms per ml
Streptococcus pneumoniae = Streptococcus pneumoniae growth inhibition assay; format: cell-based; conditions: peptide 10 micrograms per ml, visual read, scored positive/negative
Text: Results from Streptococcus pneumoniae assay:

[3] = Cytotoxicity in the HCMV assay (CellTiter 96 cell viability); conditions: human, MRC-5 cells (embryonal lung fibroblasts)
[4] = tested on: Methicillin Resistant Staphylococcus Aureus (MRSA); experiment: Methicillin resistant Staphylococcus aureus (MRSA) growth inhibition assay; format: cell-based; conditions: peptide 10 micrograms per ml, visual read, scored positive/negative (complete inhibition of macroscopic growth)
[5] = Cytotoxicity in the HIV-1 assay (MTS cell viability); conditions: human, CEM-SS cells (uninfected, cells plus peptide only)
Pseudomonas aeruginosa = Pseudomonas aeruginosa growth inhibition assay; format: cell-based; conditions: peptide 10 micrograms per ml, visual read, scored positive/negative

Nc1ccn([C@@H]2CS[C@H](CO)O2)c(=O)n1 [3TC, Lamivudine]
% Cell viability (HepG2-2.2.15 cells): 95.8%

Cc1cn([C@H]2C[C@H](N=[N+]=[N-])[C@@H](CO)O2)c(=O)[nH]c1=O [AZT]
% CPE reduction in HIV-1 infected CEM-SS cells (HIV-1): 99%
% Cell viability (CEM-SS cells): 97%

Nc1nc(O)c2ncn(COC(CO)CO)c2n1 [Ganciclovir]
% plaque reduction (HCMV strain AD169): 100%
% Cell viability [1]: 100%

N=C(N)NCCC[C@H](NC(=O)CN)C(=O)NCC(=O)N[C@@H](CC(=O)O)C(=O)N[C@@H](CC(N)=O)C(=O)N1CCC[C@H]1C(=O)O [Gly-Arg-Gly-Asp-Asn-Pro, Gly-Arg-Gly-Asp-Asn-Pro-OH] (H-GRGDNP-OH)
viability at 144 h, 10 micrograms per ml [2]: 95.2%
% inhibition (Streptococcus pneumoniae): 100.0%
viability at 144 h [3]: 100%
% inhibition [4]: 0.0%
viability at 10 micrograms per ml [5]: 100%
% inhibition (Pseudomonas aeruginosa): 0.0%

CC(C)(C)NC(=O)[C@@H]1CN(Cc2cccnc2)CCN1C[C@@H](O)C[C@@H](Cc1ccccc1)C(=O)N[C@H]1c2ccccc2C[C@H]1O [Indinavir, indinavir]
% CPE reduction in HIV-1 infected CEM-SS cells (HIV-1): 100%
